The values below come from patent US20160089391A1, “Molecular Targets for Cardiovascular Disease” (Temple University-of the Commonwealth System of Higher …, priority 2014, published 2016).

For one assay, the system named is NO production in HAECs. Nature of the assay: NO production in HAECs by DAF-FM staining. The format is cell-based, human. The conditions noted are these: for NO generation: HAECs, DL-Hcy 500 μmol/L and/or D-Glu 25 mmol/L for 48 hrs. The protocol: (§1) (FIG. 6A). Images of NO. Nitric oxide (NO) production in HAECs was measured by staining intact HAECs with NO marker DAF-FM. N^G-nitro-L-arginine methyl ester (L-NAME, 100 μmol/L, Sigma #N5751) was added in the last hour as a negative control. (FIG. 6B). Quantification of NO. (FIG. 6C). eNOS activity. Human aortic endothelial cells (HAECs) were cultured in EC medium which contains 5 mmol/L D-Glucose (D-Glu), and treated with DL-homocysteine (DL-Hcy, 500 μmol/L) and/or (D-Glu, 25 mmol) without or with MDL28170 (MDL) for 48 hrs, CTsiRNA or μ-calpsiRNA for 72 hrs. L-NAME (100 μmol/L) was added in the last hour. NO was measured by staining intact HAECs with NO marker (DAF-FM, 10 μmol/L, Sigma #D2321, 30 mins.). Endothelial nitric oxide synthase (eNOS) activity was assessed by measuring of ^3H-L-arginine conversion to ^3H-citrulline in intact HAECs. n=3, *p<0.05 vs control; †p<0.05 vs DL-Hcy-treated HAECs; ‡p<0.05 vs D-Glu-treated HAECs; #p<0.05 vs DL-Hcy/D-Glu-treated HAECs. DAF-FM, 4-Amino-5-methylamino-2′,7′-difluorescein; CTsiRNA, control siRNA; HG, hyperglycemia; HHcy, hyperhomocysteinemia; μ-calpsiRNA, μ-calpain siRNA.
(§2) HAECs treated with or without DL-Hcy and/or D-Glu for 48 hrs were stained with 4-Amino-5-Methylamino-2′,7′-Difluorofluorescein (DAF-FM). To explore the role of calpain, especially μ-calpain, the DL-Hcy/D-Glu-treated HAECs were also treated with MDL28170 (MDL, 20 μmol/L) and μ-calpain siRNA, respectively. HAECs treated with L-NAME (100 μmol/L) for 1 hr before DAF-FM staining were used as negative controls. eNOS activity in HAECs was determined by measuring the conversion of ^3H-Arg to ^3H-citrulline in intact cells as previous described (Jiang et al., 2005, Arterioscl Throm Vas 25:2515-2521).

The next assay has as its target T1, eNOS (Homo sapiens, UniProt P29474).
T1 construct: endogenous in cells; host or cells: HAECs (human aortic endothelial cells)
T1 sequence (P29474 2-1203 limits assumed): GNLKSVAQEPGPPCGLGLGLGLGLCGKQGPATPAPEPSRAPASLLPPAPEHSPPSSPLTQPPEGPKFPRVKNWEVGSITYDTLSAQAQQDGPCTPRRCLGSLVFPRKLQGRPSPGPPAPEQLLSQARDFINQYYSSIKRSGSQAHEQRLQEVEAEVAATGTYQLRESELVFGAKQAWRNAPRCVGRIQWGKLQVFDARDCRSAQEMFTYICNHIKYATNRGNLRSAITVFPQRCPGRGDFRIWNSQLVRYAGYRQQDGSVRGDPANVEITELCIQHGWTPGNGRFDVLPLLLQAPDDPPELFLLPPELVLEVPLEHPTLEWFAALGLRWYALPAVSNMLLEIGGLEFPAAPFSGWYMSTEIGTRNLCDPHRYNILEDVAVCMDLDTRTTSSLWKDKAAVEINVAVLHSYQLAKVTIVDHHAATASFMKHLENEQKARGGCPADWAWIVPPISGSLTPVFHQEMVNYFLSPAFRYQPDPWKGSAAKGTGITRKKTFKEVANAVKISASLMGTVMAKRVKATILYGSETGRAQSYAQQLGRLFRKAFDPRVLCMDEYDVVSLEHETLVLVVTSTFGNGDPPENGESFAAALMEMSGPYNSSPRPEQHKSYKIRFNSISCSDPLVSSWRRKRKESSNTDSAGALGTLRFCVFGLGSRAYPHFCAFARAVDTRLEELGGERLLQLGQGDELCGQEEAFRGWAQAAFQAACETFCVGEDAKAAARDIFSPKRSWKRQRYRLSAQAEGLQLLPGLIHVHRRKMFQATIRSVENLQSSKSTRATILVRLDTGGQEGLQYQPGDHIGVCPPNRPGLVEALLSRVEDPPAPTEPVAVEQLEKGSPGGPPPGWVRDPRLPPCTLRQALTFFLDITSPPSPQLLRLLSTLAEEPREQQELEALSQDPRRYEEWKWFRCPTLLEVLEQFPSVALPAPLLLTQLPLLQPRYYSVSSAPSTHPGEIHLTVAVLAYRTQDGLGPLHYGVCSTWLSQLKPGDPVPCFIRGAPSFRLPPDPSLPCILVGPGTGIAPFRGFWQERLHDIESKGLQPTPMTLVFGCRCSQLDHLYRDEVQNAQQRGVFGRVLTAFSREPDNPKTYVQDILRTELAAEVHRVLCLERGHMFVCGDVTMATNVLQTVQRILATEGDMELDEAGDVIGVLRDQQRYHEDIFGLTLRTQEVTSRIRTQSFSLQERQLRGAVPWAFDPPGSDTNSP
Nature of the assay: eNOS activity in intact HAECs (3H-Arg to 3H-citrulline conversion). Format: cell-based. The protocol:
as §1, §2

Setting [1] is: HAECs, DL-Hcy 500 μmol/L and/or D-Glu 25 mmol/L for 48 hrs, relative to control.

Turning to `O=C[C@H](O)[C@@H](O)[C@H](O)[C@H](O)CO` [D-Glu, D-glucose], the NO generation in the assay with NO production in HAECs is on record as 36 % of the control. The compound further gave an eNOS activity at eNOS (setting [1]) of 52%.
The compound MDL28170 had an NO production with NO production in HAECs (HHcy/HG (DL-Hcy/D-Glu)-treated HAECs, improved from 26%, MDL 20 μmol/L 48 hrs, siRNA 72 hrs) of 86%. This compound also came in with an eNOS activity on eNOS (HHcy/HG (DL-Hcy/D-Glu)-treated HAECs, improved from 35% (MDL) or printed 26% (siRNA), MDL 20 μmol/L 48 hrs, siRNA 72 hrs) of 74%.
For `NC(CCS)C(=O)O` (racemic) [DL-Hcy, DL-homocysteine], the NO generation in the assay on NO production in HAECs was 78 % of the control. The compound also gave an eNOS activity on eNOS (setting [1]) of 69%.
